# Patent US20120095056A1, “2,5-DISUBSTITUTED TETRAZOLE DERIVATIVES AND THEIR USE AS NICOTINIC ACETYLCHOLINE RECEPTOR MODULATORS” (NEUROSEARCH A/S, priority 2009, published 2012)
# Legend:
# [1] = target: T1, human nicotinic acetylcholine receptor subtype a4b2 (Homo sapiens, UniProt P17787+P43681); assay: FLIPR nAChR a4b2 positive allosteric modulator activity (modulation of nicotine-induced response); type: cell-based; details: shift of nicotine pEC50 in the presence of 10 μM test compound compared to nicotine alone, HEK-293 cells stably expressing hα4β2
# T1 construct: expressed in transfected cells
# Experimental: Characterization of hα4β2 Positive Allosteric Modulators Using FLIPR
# The modulator activity is determined as a fluorescence-based assay using a Fluorometric Imaging Plate Reader (FLIPR) as described below in more detail.
# Full concentration-response curves of nicotine +/− test compound are generated and delta pEC50 values are calculated based on EC50 values for nicotine +/− test compound. EC50 values (Effective Concentration 50%) represent the concentration of the nicotine, at which the nicotine-induced response is 50% of the maximal nicotine-induced response.
# T1 sequence (P43681 29-627 limits assumed): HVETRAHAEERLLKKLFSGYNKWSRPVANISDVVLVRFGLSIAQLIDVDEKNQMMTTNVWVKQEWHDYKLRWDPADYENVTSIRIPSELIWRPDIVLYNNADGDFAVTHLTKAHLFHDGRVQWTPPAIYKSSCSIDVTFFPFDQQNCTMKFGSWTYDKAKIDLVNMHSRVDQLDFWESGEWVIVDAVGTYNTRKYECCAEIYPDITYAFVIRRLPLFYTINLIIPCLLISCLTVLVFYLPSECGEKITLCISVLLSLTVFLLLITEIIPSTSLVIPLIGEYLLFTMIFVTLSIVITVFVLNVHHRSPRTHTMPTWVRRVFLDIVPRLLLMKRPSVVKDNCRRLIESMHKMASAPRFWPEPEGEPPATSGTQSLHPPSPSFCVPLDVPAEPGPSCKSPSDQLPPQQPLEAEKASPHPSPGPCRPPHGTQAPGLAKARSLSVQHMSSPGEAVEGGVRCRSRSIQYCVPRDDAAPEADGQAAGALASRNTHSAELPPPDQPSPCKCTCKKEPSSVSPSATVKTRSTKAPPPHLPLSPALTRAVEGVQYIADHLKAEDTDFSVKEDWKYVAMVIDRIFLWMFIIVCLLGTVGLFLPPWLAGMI
# T1 sequence (P17787 26-502): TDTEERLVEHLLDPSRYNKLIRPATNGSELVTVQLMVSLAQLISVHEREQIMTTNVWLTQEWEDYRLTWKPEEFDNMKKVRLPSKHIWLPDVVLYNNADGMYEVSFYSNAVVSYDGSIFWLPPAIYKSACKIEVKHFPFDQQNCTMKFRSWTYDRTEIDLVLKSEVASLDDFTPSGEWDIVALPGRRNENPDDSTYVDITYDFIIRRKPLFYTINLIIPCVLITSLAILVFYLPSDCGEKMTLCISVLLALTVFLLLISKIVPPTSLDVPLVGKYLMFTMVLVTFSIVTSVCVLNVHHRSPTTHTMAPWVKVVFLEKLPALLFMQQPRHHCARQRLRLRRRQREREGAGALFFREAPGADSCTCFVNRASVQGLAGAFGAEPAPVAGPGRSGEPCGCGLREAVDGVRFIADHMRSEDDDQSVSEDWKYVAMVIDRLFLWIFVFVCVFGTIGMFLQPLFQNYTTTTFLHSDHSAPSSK
SMILES,Delta pEC50 [1],melting point [°C]
"N#Cc1ccc(-n2nnc(-c3cccnc3)n2)cc1C#N [Compound 2.14, 4-[5-(3-Pyridyl)tetrazol-2-yl]phthalonitrile]",1.1,–
"N#Cc1cccc(-c2nnn(-c3cncc(F)c3)n2)c1 [Compound 2.6, 3-[2-(5-Fluoro-3-pyridyl)tetrazol-5-yl]benzonitrile]",1.8,–
"N#Cc1cccc(-n2nnc(-c3cccnc3)n2)c1 [Compound 2.1, 3-(5-Pyridin-3-yl-tetrazol-2-yl)-benzonitrile]",1.9,–
"Cl.N#Cc1cccc(-c2nnn(-c3ccc(F)nc3)n2)c1 [Compound 2.3, 3-[2-(6-Fluoro-3-pyridyl)tetrazol-5-yl]benzonitrile hydrochloride]",1.7,168 to 170
"N#Cc1cccc(-c2nnn(-c3cncc(Br)c3)n2)c1 [Compound 2.5, 3-[2-(5-Bromo-3-pyridyl)tetrazol-5-yl]benzonitrile]",–,175 to 191
"N#Cc1cccc(-c2nnn(-c3cccnc3)n2)c1 [Compound 2.2, 3-(2-Pyridin-3-yl-2h-tetrazol-5-yl)-benzonitrile]",1.9,185 to 205
"N#Cc1cccc(-n2nnc(-c3ccc(F)nc3)n2)c1 [Compound 2.10, 3-[5-(6-Fluoro-3-pyridyl)tetrazol-2-yl]benzonitrile]",1.3,–
"N#Cc1cccc(-n2nnc(-c3cncc(F)c3)n2)c1 [Compound 2.9, 3-[5-(5-Fluoro-3-pyridyl)tetrazol-2-yl]benzonitrile]",1.6,–
